48 molecules from patent publication US11279681B2, “3-alkyl bicyclic [4,5,0] hydroxamic acids as HDAC inhibitors” (Valo Health, Inc., priority 2015, dated 2022) can be followed below.

Bounds are passed on as bounds.

This test concerns the target T1, HDAC6 (Homo sapiens, UniProt Q9UBN7).
T1 sequence (Q9UBN7 1-1215): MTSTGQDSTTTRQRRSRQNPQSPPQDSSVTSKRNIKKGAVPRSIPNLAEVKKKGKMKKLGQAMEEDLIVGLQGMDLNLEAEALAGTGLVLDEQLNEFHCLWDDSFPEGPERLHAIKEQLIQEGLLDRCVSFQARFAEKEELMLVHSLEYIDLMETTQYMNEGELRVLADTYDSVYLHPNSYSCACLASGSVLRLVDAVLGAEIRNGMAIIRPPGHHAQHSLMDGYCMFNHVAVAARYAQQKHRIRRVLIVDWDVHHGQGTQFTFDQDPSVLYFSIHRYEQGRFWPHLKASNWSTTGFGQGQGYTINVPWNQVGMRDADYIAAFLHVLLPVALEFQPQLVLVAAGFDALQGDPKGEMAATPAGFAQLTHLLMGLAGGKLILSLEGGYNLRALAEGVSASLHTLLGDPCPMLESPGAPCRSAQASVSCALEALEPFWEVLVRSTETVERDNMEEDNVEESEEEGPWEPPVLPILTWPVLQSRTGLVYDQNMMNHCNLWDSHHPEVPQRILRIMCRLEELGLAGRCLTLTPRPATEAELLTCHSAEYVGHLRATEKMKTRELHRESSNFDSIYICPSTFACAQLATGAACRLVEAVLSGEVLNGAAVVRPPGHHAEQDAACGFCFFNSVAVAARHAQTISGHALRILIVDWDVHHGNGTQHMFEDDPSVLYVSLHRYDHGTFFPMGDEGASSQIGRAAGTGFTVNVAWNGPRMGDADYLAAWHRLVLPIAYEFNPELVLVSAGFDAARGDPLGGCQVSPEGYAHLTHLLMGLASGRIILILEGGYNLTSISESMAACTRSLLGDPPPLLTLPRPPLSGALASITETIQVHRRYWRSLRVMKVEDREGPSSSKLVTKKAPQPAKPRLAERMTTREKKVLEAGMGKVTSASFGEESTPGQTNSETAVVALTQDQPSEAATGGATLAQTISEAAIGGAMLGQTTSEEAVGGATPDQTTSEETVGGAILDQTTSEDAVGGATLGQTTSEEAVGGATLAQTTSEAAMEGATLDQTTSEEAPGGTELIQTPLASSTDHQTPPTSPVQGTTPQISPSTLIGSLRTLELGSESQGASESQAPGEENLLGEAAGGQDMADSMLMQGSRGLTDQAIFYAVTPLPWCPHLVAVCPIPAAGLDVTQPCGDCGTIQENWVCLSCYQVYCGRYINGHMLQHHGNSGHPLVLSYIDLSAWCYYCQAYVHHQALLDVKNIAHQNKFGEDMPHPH
The test can be described thus: In vitro histone deacetylase assay: enzymatic HDAC6 electrophoretic mobility shift assay. The test is classed as biochemical. Particulars: full length human recombinant HDAC6, 1 nM enzyme, 2 μM peptide substrate RHKK(Ac)-NH2, 25° C.; read-out: Inhibitory Concentration (IC50) Values for Representative Compounds against HDAC6, Activity Range. A general note: Mobility shift assays separate free from complexed probe on a gel.
Consider `COC1CCN(C(=O)N2CCOc3cc(C(=O)NO)ccc3C2)CC1` [N-hydroxy-4-(4-methoxypiperidine-1-carbonyl)-2,3,4,5-tetrahydrobenzo[f][1,4]oxazepine-8-carboxamide], for which the IC50 is 100 to 500 nM.

`COc1ccc(S(=O)(=O)N2CCOc3ccc(C(=O)NO)cc3C2)cc1`: the IC50 was in the range of 100 to 500 nM. Next, `O=C1CN(Cc2nccs2)Cc2cc(C(=O)NO)ccc2N1`: > 500 nM. Under `COc1ccc(S(=O)(=O)N2CC(=O)Nc3ccc(C(=O)NO)cc3C2)cc1` stands > 500 nM.

Take `C[C@H]1COc2cc(C(=O)NO)ccc2CN1c1cccc(C(F)(F)F)c1` [(S)-N-hydroxy-3-methyl-4-(3-(trifluoromethyl)phenyl)-2,3,4,5-tetrahydrobenzo[f][1,4]oxazepine-8-carboxamide]: the IC50 lay in the range of 100 to 500 nM. Next, `C[C@H]1COc2cc(C(=O)NO)ccc2CN1C(=O)OC1CCC1` [cyclobutyl(S)-8-(hydroxycarbamoyl)-3-methyl-2,3-dihydrobenzo[f][1,4]oxazepine-4(5H)-carboxylate]: ≤ 100 nM. Next, `CC(C)c1ccc(CN2CC(=O)Nc3ccc(C(=O)NO)cc3C2)nc1`: 100 to 500 nM. Under `CC1CCCCN1C(=O)N1Cc2ccc(C(=O)NO)cc2OC[C@@H]1C` (stereo partly drawn) [(3S)-N-hydroxy-3-methyl-4-(2-methylpiperidine-1-carbonyl)-2,3,4,5-tetrahydrobenzo[f][1,4]oxazepine-8-carboxamide] stands ≤ 100 nM; under `CC(C)[C@H]1COc2cc(C(=O)NO)ccc2CN1C`, ≤ 100 nM. On to `COc1ccc(NC(=O)N2Cc3ccc(C(=O)NO)cc3O[C@H](C(C)C)C2)cc1` [(R)-N8-hydroxy-2-isopropyl-N4-(4-methoxyphenyl)-2,3-dihydrobenzo[f][1,4]oxazepine-4,8(5H)-dicarboxamide], for which the IC50 is > 500 nM. Under `C[C@H]1COc2cc(C(=O)NO)ccc2CN1S(C)(=O)=O` [(S)-N-hydroxy-3-methyl-4-(methylsulfonyl)-2,3,4,5-tetrahydrobenzo[f][1,4]oxazepine-8-carboxamide] stands ≤ 100 nM; under `COc1ccc(CCN2CCOc3cc(C(=O)NO)ccc3C2=O)cc1`, 100 to 500 nM; under `C[C@H]1COc2cc(C(=O)NO)ccc2CN1c1ccc(F)cc1` [(S)-4-(4-fluorophenyl)-N-hydroxy-3-methyl-2,3,4,5-tetrahydrobenzo[f][1,4]oxazepine-8-carboxamide], ≤ 100 nM.

With `O=C1CN(Cc2cc(Cl)cc(Cl)c2)Cc2cc(C(=O)NO)ccc2N1`, the IC50 is ≤ 100 nM.

Turning to `COc1ccc(NC(=O)N2CCOc3ccc(C(=O)NO)cc3C2)cc1`, the IC50 was > 500 nM.

For the molecule `C[C@@H]1CN(c2ccccc2)Cc2ccc(C(=O)NO)cc2O1`, the IC50 is 100 to 500 nM. Next, `O=C1CN(Cc2nc3ccccc3[nH]2)Cc2cc(C(=O)NO)ccc2N1`: ≤ 100 nM; `COc1ccc(CN2Cc3ccc(C(=O)NO)cc3OCC23CC3)cc1` [N-hydroxy-4-(4-methoxybenzyl)-4,5-dihydro-2H-spiro[benzo[f][1,4]oxazepine-3,1′-cyclopropane]-8-carboxamide]: ≤ 100 nM. Next, `COc1ccc(CN2CCOc3ccc(C(=O)NO)cc3C2)cc1`: > 500 nM. Under `CN1Cc2ccc(C(=O)NO)cc2OCC1(C)C` [N-hydroxy-3,3,4-trimethyl-2,3,4,5-tetrahydrobenzo[f][1,4]oxazepine-8-carboxamide] stands ≤ 100 nM. With `COc1ccc(CN2CCOc3cc(C(=O)NO)ccc3[C@H]2C)cc1` [(R)-N-hydroxy-4-(4-methoxybenzyl)-5-methyl-2,3,4,5-tetrahydrobenzo[f][1,4]oxazepine-8-carboxamide], the IC50 is > 500 nM. Under `COCCn1c(N2CCOc3cc(C(=O)NO)ccc3C2)nc2ccccc21` stands ≤ 100 nM; under `COC[C@@H]1CN(C(=O)Nc2ccc(OC)cc2)Cc2ccc(C(=O)NO)cc2O1` [(S)-N8-hydroxy-2-(methoxymethyl)-N4-(4-methoxyphenyl)-2,3-dihydrobenzo[f][1,4]oxazepine-4,8(5H)-dicarboxamide], 100 to 500 nM; under `C[C@H]1COc2cc(C(=O)NO)ccc2CN1CCC1CCCO1` (stereo partly drawn) [(3S)-N-hydroxy-3-methyl-4-(2-(tetrahydrofuran-2-yl)ethyl)-2,3,4,5-tetrahydrobenzo[f][1,4]oxazepine-8-carboxamide], ≤ 100 nM. Under `O=C1CN(Cc2cncnc2)Cc2cc(C(=O)NO)ccc2N1` stands > 500 nM.

`C[C@H]1COc2cc(C(=O)NO)ccc2CN1CC1CCCCC1` [(S)-4-(cyclohexylmethyl)-N-hydroxy-3-methyl-2,3,4,5-tetrahydrobenzo[f][1,4]oxazepine-8-carboxamide]: the IC50 is ≤ 100 nM. Next, `O=C(NO)c1ccc2c(c1)OCCN(c1ccccc1)C2` [N-hydroxy-4-phenyl-2,3,4,5-tetrahydrobenzo[f][1,4]oxazepine-8-carboxamide]: > 500 nM.

As for `COCCN1CCOc2cc(C(=O)NO)ccc2C1` [N-hydroxy-4-(2-methoxyethyl)-2,3,4,5-tetrahydrobenzo[f][1,4]oxazepine-8-carboxamide], the IC50 lay in the range of 100 to 500 nM. Under `COc1ccc(CN2Cc3ccc(C(=O)NO)cc3OC[C@@H]2C)cc1` stands ≤ 100 nM. Under `C[C@H]1COc2cc(C(=O)NO)ccc2CN1CCN1CCOCC1` [(S)-N-hydroxy-3-methyl-4-(2-morpholinoethyl)-2,3,4,5-tetrahydrobenzo[f][1,4]oxazepine-8-carboxamide] stands 100 to 500 nM. Under `COC[C@H]1COc2cc(C(=O)NO)ccc2CN1Cc1ccc(OC)cc1` [(S)-N-hydroxy-4-(4-methoxybenzyl)-3-(methoxymethyl)-2,3,4,5-tetrahydrobenzo[f][1,4]oxazepine-8-carboxamide] stands ≤ 100 nM; under `COc1ccc(CN2CCOc3nc(C(=O)NO)ccc3C2)cc1`, > 500 nM. As to `N#Cc1ccc(CN2CC(=O)Nc3ccc(C(=O)NO)cc3C2)cc1`, the IC50 lay within 100 to 500 nM. With `CC(C)[C@@H]1COc2cc(C(=O)NO)ccc2CN1C`, the IC50 is ≤ 100 nM. Next, `O=C(NO)c1ccc2c(c1)OCCN(c1nc3ccccc3[nH]1)C2`: ≤ 100 nM; `COc1ccc(S(=O)(=O)N2Cc3ccc(C(=O)NO)cc3O[C@@H](C)C2)cc1`: > 500 nM; `COCCS(=O)(=O)N1Cc2ccc(C(=O)NO)cc2OC[C@@H]1C` [(S)-N-hydroxy-4-((2-methoxyethyl)sulfonyl)-3-methyl-2,3,4,5-tetrahydrobenzo[f][1,4]oxazepine-8-carboxamide]: 100 to 500 nM. As to `C[C@@H]1COc2cc(C(=O)NO)ccc2CN1c1ccccc1`, the IC50 was in the range of 100 to 500 nM. Take `O=C1CN(Cc2cccnc2)Cc2cc(C(=O)NO)ccc2N1`: the IC50 lay in the range of 100 to 500 nM. As to `O=C(NO)c1ccc2c(c1)OCCN(c1cccnc1)C2` [N-hydroxy-4-(pyridin-3-yl)-2,3,4,5-tetrahydrobenzo[f][1,4]oxazepine-8-carboxamide], the IC50 was in the range of 100 to 500 nM. Next, `C[C@H]1COc2cc(C(=O)NO)ccc2CN1C(=O)NC1CCOCC1` [(S)-N8-hydroxy-3-methyl-N4-(tetrahydro-2H-pyran-4-yl)-2,3-dihydrobenzo[f][1,4]oxazepine-4,8(5H)-dicarboxamide]: ≤ 100 nM; `C[C@H]1COc2cc(C(=O)NO)ccc2CN1C(=O)N(C)C` [(S)-N8-hydroxy-N4,N4,3-trimethyl-2,3-dihydrobenzo[f][1,4]oxazepine-4,8(5H)-dicarboxamide]: ≤ 100 nM; `O=C1CN(Cc2cccc(OC(F)(F)F)c2)Cc2cc(C(=O)NO)ccc2N1`: 100 to 500 nM. On to `O=C(NO)c1ccc2c(c1)OCCN(c1ccc(Cl)c(Cl)c1)C2`, for which the IC50 is 100 to 500 nM.

Consider `COCCN1Cc2ccc(C(=O)NO)cc2OC[C@@H]1C` [(S)-N-hydroxy-4-(2-methoxyethyl)-3-methyl-2,3,4,5-tetrahydrobenzo[f][1,4]oxazepine-8-carboxamide], for which the IC50 was ≤ 100 nM. Next, `C[C@H]1COc2cc(C(=O)NO)ccc2CN1CC1COC1` [(S)-N-hydroxy-3-methyl-4-(oxetan-3-ylmethyl)-2,3,4,5-tetrahydrobenzo[f][1,4]oxazepine-8-carboxamide]: ≤ 100 nM; `COc1ccc(CN2Cc3ccc(C(=O)NO)cc3O[C@H](C)C2)cc1`: 100 to 500 nM; `COCCn1c(N2CCOc3ccc(C(=O)NO)cc3C2)nc2ccccc21`: 100 to 500 nM.
